Measurements taken from ChEMBL document CHEMBL1201862, “PubChem BioAssay data set” (2004).
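96-well plates; 48 h exposure; 5 concentrations. Endpoints by linear interpolation between flanking doses. Not reached: highest tested concentration assigned. GI50 is the concentration that inhibits growth by half.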 Calls of active or inactive are those of the source. No stated cut-off is given here; in the data, active = GI50 up to about 1.1 µM and inactive = higher. Square brackets hold non-standard residues; d marks the D form. Peptide text beside a SMILES is read from it. pGlu = O=C1CC[CH](C(=O)O)N1

Assays:
Assay in all cases: growth of human tumour cells (NCI), 48 h
NCI-H226 = test system: NCI-H226
UACC-62 = test system: UACC-62
OVCAR-4 = test system: OVCAR-4
HCC 2998 = test system: HCC 2998
TK-10 = test system: TK-10
COLO 205 = test system: COLO 205
SW-620 = test system: SW-620
HCT-116 = test system: HCT-116
A549 = test system: A549
CAKI-1 = test system: CAKI-1
HCT-15 = test system: HCT-15
MDA-N = test system: MDA-N
Malme-3M = test system: Malme-3M
T47D = test system: T47D
SK-OV-3 = test system: SK-OV-3
SK-MEL-28 = test system: SK-MEL-28
HT-29 = test system: HT-29
SF-539 = test system: SF-539

Row | SMILES | GI50 (NCI-H226) | GI50 (UACC-62) | GI50 (OVCAR-4) | GI50 (HCC 2998) | GI50 (TK-10) | GI50 (COLO 205) | GI50 (SW-620) | GI50 (HCT-116) | GI50 (A549) | GI50 (CAKI-1) | GI50 (HCT-15) [µM] | GI50 (MDA-N) | GI50 (Malme-3M) | GI50 (T47D) | GI50 (SK-OV-3) | GI50 (SK-MEL-28) | GI50 (HT-29) | GI50 (SF-539)
1 | O=c1cccccc1O [TROPOLONE] | > 100 µM (inactive) | 96.6 µM (inactive) | 94 µM (inactive) | 79.8 µM (inactive) | 83.9 µM (inactive) | 39.6 µM (inactive) | 45.5 µM (inactive) | 32 µM (inactive) | > 100 µM (inactive) | 83.6 µM (inactive) | 34 | > 100 µM (inactive) | > 100 µM (inactive) | 52.8 µM (inactive) | > 100 µM (inactive) | > 100 µM (inactive) | 41.8 µM (inactive) | 
2 | CC(C)=CCOC(=O)C(C)=[N+]=[N-] | > 100 µM (inactive) | > 100 µM (inactive) | > 100 µM (inactive) | > 100 µM (inactive) | > 100 µM (inactive) | > 100 µM (inactive) | > 100 µM (inactive) | > 100 µM (inactive) |  | > 100 µM (inactive) | > 100 | > 100 µM (inactive) | > 100 µM (inactive) | > 100 µM (inactive) |  | > 100 µM (inactive) | > 100 µM (inactive) | 
3 | CCN1C(c2ccccc2)=CC(c2ccccc2)(C(Cl)(Cl)Cl)C=C1c1ccccc1 | 19.2 µM (inactive) |  | 24 µM (inactive) | 3.04 µM (inactive) | 17.7 µM (inactive) |  | 7.82 µM (inactive) | 4.66 µM (inactive) | 32.4 µM (inactive) | 30.8 µM (inactive) | 42.9 | 4.94 µM (inactive) | 4.5 µM (inactive) | 0.44 µM (active) |  | 3.92 µM (inactive) | 3.48 µM (inactive) | 15.6 µM (inactive)
4 | O=C(O)CSc1nnc(COc2ccc(Cl)cc2)n1-c1ccccc1 | > 100 µM (inactive) | > 100 µM (inactive) | > 100 µM (inactive) | > 100 µM (inactive) | > 100 µM (inactive) | > 100 µM (inactive) | > 100 µM (inactive) | > 100 µM (inactive) | > 100 µM (inactive) | > 100 µM (inactive) | > 100 | > 100 µM (inactive) | > 100 µM (inactive) | > 100 µM (inactive) | > 100 µM (inactive) | > 100 µM (inactive) | > 100 µM (inactive) | 
5 | Brc1ccc(-c2ccc(-c3ccc(Br)s3)s2)s1 | > 100 µM (inactive) | > 100 µM (inactive) | > 100 µM (inactive) | > 100 µM (inactive) | > 100 µM (inactive) | > 100 µM (inactive) | > 100 µM (inactive) | > 100 µM (inactive) | > 100 µM (inactive) |  | > 100 | > 100 µM (inactive) |  | > 100 µM (inactive) | > 100 µM (inactive) | > 100 µM (inactive) | > 100 µM (inactive) | > 100 µM (inactive)
6 | Cc1cc2nnc(C(N)=O)c(N)c2cc1C | > 100 µM (inactive) | > 100 µM (inactive) | > 100 µM (inactive) | > 100 µM (inactive) | > 100 µM (inactive) | > 100 µM (inactive) | > 100 µM (inactive) | > 100 µM (inactive) | > 100 µM (inactive) | > 100 µM (inactive) | > 100 | > 100 µM (inactive) | 38.4 µM (inactive) | > 100 µM (inactive) | 42.1 µM (inactive) |  | > 100 µM (inactive) | > 100 µM (inactive)
7 | C=CCN1C(=O)/C(=C/c2ccc(C)cc2)NC1=S | 88.3 µM (inactive) | 60.1 µM (inactive) | 57 µM (inactive) | > 100 µM (inactive) | > 100 µM (inactive) | 63.5 µM (inactive) | > 100 µM (inactive) | > 100 µM (inactive) | 76.4 µM (inactive) | > 100 µM (inactive) | > 100 | 94.8 µM (inactive) |  | 67.1 µM (inactive) | > 100 µM (inactive) | > 100 µM (inactive) | 96.6 µM (inactive) | > 100 µM (inactive)
8 | O=C1C(Br)=C(Br)C(=O)c2c(O)ccc(O)c21 | 28.4 µM (inactive) | 11.2 µM (inactive) | 3.6 µM (inactive) | 19.8 µM (inactive) | 2.27 µM (inactive) | 1.09 µM (active) | 1.33 µM (inactive) | 3.56 µM (inactive) | 19.3 µM (inactive) |  | 2.19 | 2.49 µM (inactive) | 1.45 µM (inactive) | 2.19 µM (inactive) | 20 µM (inactive) | 2.06 µM (inactive) | 3.15 µM (inactive) | 15.9 µM (inactive)
9 | CC(NC(=O)C(Cc1c[nH]cn1)NC(=O)C1CCC(=O)N1)C(N)=O (stereo not drawn) ([pGlu]-His-Ala-NH2; configuration not given here) | > 100 µM (inactive) | > 100 µM (inactive) |  | > 100 µM (inactive) | > 100 µM (inactive) | > 100 µM (inactive) | > 100 µM (inactive) | > 100 µM (inactive) | > 100 µM (inactive) |  |  | > 100 µM (inactive) | > 100 µM (inactive) | > 100 µM (inactive) | > 100 µM (inactive) | > 100 µM (inactive) | > 100 µM (inactive) | 
10 | O=C1CSCc2sccc21 | > 100 µM (inactive) | > 100 µM (inactive) | > 100 µM (inactive) | 15 µM (inactive) | > 100 µM (inactive) | > 100 µM (inactive) | > 100 µM (inactive) | > 100 µM (inactive) | > 100 µM (inactive) | > 100 µM (inactive) | > 100 | > 100 µM (inactive) |  | > 100 µM (inactive) | > 100 µM (inactive) | > 100 µM (inactive) | > 100 µM (inactive) | > 100 µM (inactive)
11 | O=C(O)CN1CCNCCN(CC(=O)O)CCNCC1 | > 64.7 µM (inactive) | 38.8 µM (inactive) | > 100 µM (inactive) | > 82.2 µM (inactive) | > 100 µM (inactive) | 6.64 µM (inactive) | 4.2 µM (inactive) | 4.75 µM (inactive) | 5.57 µM (inactive) | > 100 µM (inactive) | 9.29 | 10.9 µM (inactive) | 56.9 µM (inactive) | > 48.2 µM (inactive) | 20.1 µM (inactive) |  | 13.5 µM (inactive) | > 100 µM (inactive)
12 | CCN(CC)c1ccc2cc(C(N)=O)/c(=N/c3ccc(F)cc3)oc2c1 | 36.4 µM (inactive) | 26.4 µM (inactive) | 41.3 µM (inactive) | 59.2 µM (inactive) | 10.3 µM (inactive) | > 100 µM (inactive) | > 100 µM (inactive) | 5.07 µM (inactive) | 91 µM (inactive) | 45.9 µM (inactive) | 59.8 | > 100 µM (inactive) | 98.2 µM (inactive) | 14.2 µM (inactive) | 58.6 µM (inactive) | > 100 µM (inactive) | 6.95 µM (inactive) | 
